Reference: patent EP2616456B1, “NUCLEAR EXPORT INHIBITORS” (Universitätsmedizin der Johannes Gutenberg-Universität Mainz, priority 2010, dated 2012)
Entries after “also recorded” stand apart in the source; their conditions may differ.

Experiments:
[1] = system: RKO; assay: Cell viability (CellTiter-Glo) and cell death, RKO; format: cell-based; settings: for cell death induced by treatment: RKO (colon cancer), 25µM; for viability compared to the control: RKO, 100µM, 72h, CellTiter-Glo
Description: (§1) To test the anti-cancer activity of the compounds, several cancer cell lines, currently used as models for different epithelial cancers and leukemias, were treated with the indicated inhibitors. […] Every 24h, the cell culture medium was replaced by fresh compound-containing medium. 72h post treatment, cell were analyzed by adding 100µl CellTiter-Glo® assay reagent (Promega). Luminescence was measured with a LuminoskanAscent device (ThermoScientific). Cells treated with a corresponding amount of DMSO only were use as a control. The luminescence (equals cell viability) of said control was set to 100%.

[2] = system: HeLa cells; assay: Cell viability (CellTiter-Glo) and cell death, HeLa; format: cell-based; settings: for cell death induced by treatment: HeLa (cervix carcinoma), 25µM; for viability compared to the control: HeLa, 100µM, 72h, CellTiter-Glo; for IC50: Homo sapiens, compound concentration reducing HeLa cell viability by 50%
Description: as §1
IC50 value corresponds to compound concentration reducing HeLa cell viability by 50%. Topt is the time point post treatment when maximum nuclear export inhibition was observed by fluorescence microscopy. Table 4: Functional characteristics of nuclear export inhibitors
It was assessed whether the export inhibitors also affect the viability of non-malignant human cells, precluding their potential (pre)clinical use. 10^3 freshly isolated non-malignant primary human fibroblasts (HTF-8) or HeLa cells/well were seeded and 24h later treated with the indicated compounds (final concentration: 100µM). Every 24h cell culture medium was replaced by freshly prepared compound-containing medium. 72h post treatment the cells were analyzed by adding 100µl CellTiter-Glo® assay reagent, and luminescence measured with a LuminoskanAscent (ThermoScientific). Cells treated with DMSO only were used as a control. The fluorescence measured (equals cell viability) with said control was set to 100%.

[3] = system: SUP-B15; assay: Cell death, SUP-B15; format: cell-based; settings: SUP-B15 (B cell precursor ALL), 25µM
[4] = system: HIV-1 Rev protein; assay: Nuclear export of HIV-1 Rev-GFP in actinomycin D treated HeLa cells; format: cell-based; settings: 25µM
Text: The HIV-1 Rev protein transports unspliced and incompletely spliced viral RNAs from the nucleus into the cytoplasm (Stauber et al., 1995). As such, Rev's export function is crucial for viral replication and AIDS development (Pavlakis and Stauber, 1998; Stauber et al., 1995).

[5] = system: FaDu; assay: Cell viability (CellTiter-Glo) and cell death, FaDu; format: cell-based; settings: for cell death induced by treatment: FaDu (head and neck cancer), 25µM; for viability compared to the control: FaDu, 100µM, 72h, CellTiter-Glo
Description: as §1

[6] = system: KASUMI-1; assay: Cell death, KASUMI-1; format: cell-based; settings: KASUMI-1 (acute myeloid leukemia, AML), 25µM
[7] = system: LS174T; assay: Cell viability (CellTiter-Glo) and cell death, LS174T; format: cell-based; settings: for cell death induced by treatment: LS174T (colon adenocarcinoma), 25µM; for viability compared to the control: LS174T, 100µM, 72h, CellTiter-Glo
Description: as §1

[8] = In vivo toxicity in nude mice; settings: male NMRI nu/nu mice, i.p. three times every second day, 200µl 1mM
Description: To investigate whether the nuclear export inhibitors cause toxic effects in vivo, six-week-old male NMRI nu/nu mice were injected three times intraperitoneally (i.p.) every second day with 200µl 1mM C3 or C5 (5 mice each), or with 200µl DMSO only (control, 2 mice).

[9] = system: Survivin; assay: Nuclear export of Survivin-GFP fusion stably expressed in A431 cells; format: cell-based; settings: A431, stable expression, 25µM
Text: Nuclear export of Survivin is crucial for its tumor promoting cytoprotective activity (Engels et al., 2007; Knauer et al., 2007a; Knauer et al., 2007b).

SMILES	cell death induced by treatment [1]	viability compared to the control [1]	cell death induced by treatment [2]	viability compared to the control [2]	IC50 [2] [µM]	cell death induced by treatment [3]	Localization of HIV-1 Rev-GFP (nuclear export of HIV-1 Rev protein) [4]	cell death induced by treatment [5]	viability compared to the control [5]	cell death induced by treatment [6]	cell death induced by treatment [7]	viability compared to the control [7]	other signs of in vivo toxicity [8]	weight loss compared to the DMSO control [8]	Localization of Survivin-GFP fusion (nuclear export of Survivin) [9]
NC(=O)c1c(NC(NC(=O)c2ccccc2F)(C(F)(F)F)C(F)(F)F)sc2c1CCCC2 [Compound C3, 2-[[1,1,1,3,3,3-hexafluoro-2-[(2-fluorobenzoyl)amino]propan-2-yl]amino]-4,5,6,7-tetrahydro-1-benzothiophene-3-carboxamide]	cell death	significantly reduced viability	cell death	significantly reduced viability; also recorded: significantly affect the viability	38	cell death	inhibited; also recorded: restored the nuclear accumulation	cell death	significantly reduced viability	cell death	cell death	significantly reduced viability	no significant weight loss (see Figure 5) or other signs of in vivo toxicity were observed	no significant weight loss	
O=C(NC1CS(=O)(=O)CC1Cl)c1cccc(C(F)(F)F)c1 (centres unmarked) [Compound C5, N-(4-chloro-1,1-dioxothiolan-3-yl)-3-(trifluoromethyl)benzamide]	cell death	significantly reduced viability	cell death	significantly reduced viability; also recorded: significantly affect the viability	17	cell death	inhibited; also recorded: restored the nuclear accumulation	cell death	significantly reduced viability	cell death	cell death	significantly reduced viability	no significant weight loss (see Figure 5) or other signs of in vivo toxicity were observed	no significant weight loss	nuclear accumulation
